Experimental data published in patent US11857618B2 (priority 2020, dated 2024).

System: phosphorylation of IRF3 in HeLa cells
Format: cell-based

## Nc1nc(=O)c2ncn([C@@H]3O[C@@H]4COP(=O)(O)O[C@H]5[C@@H](O)[C@H](n6cnc7c(N)ncnc76)O[C@@H]5COP(=O)(O)O[C@@H]3[C@@H]4O)c2[nH]1 [cGAMP, 2′,3′-cGAMP (cyclic [G(2′,5′)pA(3′,5′)p])]
  pIRF3 levels (band normalized to actin) as compared to untreated control: up to 3 fold
